Columns and labels:
[1] = target: T1, IRAK1 (Homo sapiens, UniProt P51617); assay: RBC HotSpot Kinase Assay, IRAK1; type: biochemical; details: isolated kinase, 33P-ATP
T1 construct: purchased Reaction Biology (RBC), HotSpot kinase assay
Method in brief: (§1)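 Catalytic activity, not binding, is measured: substrate transphosphorylation from 33P-ATP is captured on P81 filters after 2 hours at room temperature. Enzyme is the easiest-expressed form, sometimes truncated. Compound and kinase are preincubated 20 min before ATP addition.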

[2] = test system: MOLM14 D835Y cells; assay: MOLM14 D835Y cell viability assay (Cell Titer Glo); type: cell-based; details: Homo sapiens, MOLM-14, 48 h
Method in brief: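 MOLM14 cells carrying FLT3 D835Y or F691L were seeded at 1000 cells/well in RPMI-1640 with 20% FBS and dosed at 22 concentrations, 1:2 dilutions from 10 μM. Viability after 48 h by Cell Titer Glo luminescence; 2.3 μM bortezomib as cytotoxic control.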

[3] = test system: MOLM14 F691L cells; assay: MOLM14 F691L cell viability assay (Cell Titer Glo); type: cell-based; details: Homo sapiens, MOLM-14, 48 h
Protocol: Both cell lines have activated FLT3 receptors, each of which carry additional resistance mutations in the kinase domain (D835Y and F691L, respectively).
MOLM14 D835Y and MOLM14 F691L cells were grown in RPMI-1640 media supplemented with 20% fetal bovine serum (FBS). For viability/cytotoxicity assessments, cells were seeded into 1536-well white polystyrene tissue culture-treated Greiner plates using a Multidrop Combi dispenser (ThermoFisher), in final volume 5 μL of growth media per well, at a density of 1000 cells per well. After cell addition, 23 nL of test compound were transferred into individual wells (22 doses tested for each test compound, with a 1:2 dilution series starting at 10 μM) via a 1536 pin-tool. Bortezomib (final concentration 2.3 μM) was used as a positive control for cell cytotoxicity. Plates were incubated for 48 hours at standard incubator conditions covered by a stainless steel gasketed lid to prevent evaporation. 48 hours post compound addition, 3 μL of Cell Titer Glo (Promega) were added to each well and plates were incubated at room temperature for 15 minutes with the stainless-steel lid in place. Luminescence readings were taken using a Viewlux imager (PerkinElmer) with a 2 second exposure time per plate.

[4] = target: T2, IRAK4 (Homo sapiens, UniProt Q9NWZ3); assay: RBC HotSpot Kinase Assay, IRAK4; type: biochemical; parameters: purchased Reaction Biology (RBC), HotSpot kinase assay; details: isolated kinase, 33P-ATP
T2 sequence (Q9NWZ3 1-460): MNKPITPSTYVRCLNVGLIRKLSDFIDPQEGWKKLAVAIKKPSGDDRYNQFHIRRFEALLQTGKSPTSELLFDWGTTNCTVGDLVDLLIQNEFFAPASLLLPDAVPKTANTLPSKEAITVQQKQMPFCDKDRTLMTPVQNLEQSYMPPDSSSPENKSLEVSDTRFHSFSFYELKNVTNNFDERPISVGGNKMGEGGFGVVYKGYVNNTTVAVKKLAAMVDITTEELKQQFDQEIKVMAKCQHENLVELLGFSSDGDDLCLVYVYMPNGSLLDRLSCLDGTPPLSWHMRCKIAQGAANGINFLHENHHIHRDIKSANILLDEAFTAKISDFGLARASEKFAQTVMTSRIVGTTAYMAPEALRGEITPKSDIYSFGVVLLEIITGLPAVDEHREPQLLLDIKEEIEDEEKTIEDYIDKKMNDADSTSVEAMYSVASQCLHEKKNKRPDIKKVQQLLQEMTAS
Method in brief: as §1

[5] = target: T3, FLT3 (Homo sapiens, UniProt P36888); assay: RBC HotSpot Kinase Assay, FLT3; type: biochemical; parameters: purchased Reaction Biology (RBC), HotSpot kinase assay; details: isolated kinase, 33P-ATP
T3 sequence (P36888 27-993): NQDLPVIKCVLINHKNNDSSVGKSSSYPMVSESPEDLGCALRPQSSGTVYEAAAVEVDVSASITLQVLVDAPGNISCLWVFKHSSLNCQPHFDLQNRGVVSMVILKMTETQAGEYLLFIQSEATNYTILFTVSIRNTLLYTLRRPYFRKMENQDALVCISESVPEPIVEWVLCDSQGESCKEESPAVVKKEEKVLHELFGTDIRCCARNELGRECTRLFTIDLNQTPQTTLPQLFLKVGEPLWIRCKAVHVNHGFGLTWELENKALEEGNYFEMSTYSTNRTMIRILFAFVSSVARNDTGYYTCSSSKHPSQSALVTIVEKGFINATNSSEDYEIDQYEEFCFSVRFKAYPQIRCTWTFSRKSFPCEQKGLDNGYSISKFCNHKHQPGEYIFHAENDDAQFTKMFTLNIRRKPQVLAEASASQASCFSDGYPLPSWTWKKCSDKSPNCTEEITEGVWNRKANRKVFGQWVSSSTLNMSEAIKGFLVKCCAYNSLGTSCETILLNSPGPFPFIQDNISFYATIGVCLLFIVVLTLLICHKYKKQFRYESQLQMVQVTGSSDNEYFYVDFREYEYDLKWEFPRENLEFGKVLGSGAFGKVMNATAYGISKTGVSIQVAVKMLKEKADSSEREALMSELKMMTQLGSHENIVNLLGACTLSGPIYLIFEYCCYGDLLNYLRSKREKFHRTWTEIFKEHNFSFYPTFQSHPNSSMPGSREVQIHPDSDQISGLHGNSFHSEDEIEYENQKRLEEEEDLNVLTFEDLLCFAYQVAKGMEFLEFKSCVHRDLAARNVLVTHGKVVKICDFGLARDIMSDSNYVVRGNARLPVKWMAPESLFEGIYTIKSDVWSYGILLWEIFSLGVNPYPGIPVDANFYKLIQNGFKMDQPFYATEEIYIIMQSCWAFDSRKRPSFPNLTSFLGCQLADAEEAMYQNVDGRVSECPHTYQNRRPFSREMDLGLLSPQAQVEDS
Method in brief: as §1

T1 sequence (P51617 whole entry): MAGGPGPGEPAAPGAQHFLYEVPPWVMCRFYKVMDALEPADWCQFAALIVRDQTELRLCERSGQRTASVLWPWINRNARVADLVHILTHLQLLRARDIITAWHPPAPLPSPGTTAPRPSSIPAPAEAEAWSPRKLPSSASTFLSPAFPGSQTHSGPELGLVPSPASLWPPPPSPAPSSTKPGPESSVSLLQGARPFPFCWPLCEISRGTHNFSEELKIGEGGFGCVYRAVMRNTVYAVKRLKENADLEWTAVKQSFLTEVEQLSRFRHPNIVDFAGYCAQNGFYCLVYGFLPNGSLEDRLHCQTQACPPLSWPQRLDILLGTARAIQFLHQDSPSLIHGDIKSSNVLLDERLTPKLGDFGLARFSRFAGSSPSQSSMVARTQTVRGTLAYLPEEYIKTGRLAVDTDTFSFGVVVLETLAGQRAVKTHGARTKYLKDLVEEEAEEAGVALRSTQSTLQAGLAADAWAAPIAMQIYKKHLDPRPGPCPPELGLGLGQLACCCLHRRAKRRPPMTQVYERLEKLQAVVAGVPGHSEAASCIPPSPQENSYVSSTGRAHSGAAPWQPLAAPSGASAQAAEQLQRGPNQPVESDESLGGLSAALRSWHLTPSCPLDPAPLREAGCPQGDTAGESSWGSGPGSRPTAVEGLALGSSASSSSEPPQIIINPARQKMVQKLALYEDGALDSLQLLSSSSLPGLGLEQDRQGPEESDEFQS

Row | IC50 [1] [nM] | IC50 [2] [nM] | IC50 [3] [nM] | IC50 [4] [nM] | IC50 [5] [nM] | SMILES
1 | 138 | 44 | 376 | 2 | < 0.5 | F[C@H]1CNC[C@@H]1Nc1cccc(-c2cnc3cnc(C4(C(F)(F)F)CC4)cn23)n1 [Compound 8, N-((3S,4S)-4-fluoropyrrolidin-3-yl)-6-(6-(1-(trifluoromethyl)cyclopropyl)imidazo[1,2-a]pyrazin-3-yl)pyridin-2-amine]
2 | 75 | 41 | 273 | 2 | 0.8 | O=C1NCCN1c1cn2c(-c3cccc(N[C@H]4CNC[C@@H]4F)n3)cnc2cn1 [Compound 117, 1-(3-(6-(((3S,4S)-4-fluoropyrrolidin-3-yl)amino)pyridin-2-yl)imidazo[1,2-a]pyrazin-6-yl)imidazolidin-2-one]
3 | 60 | 9 | 38 | 3 | 0.6 | c1cc(N[C@@H]2CCCNC2)nc(-c2cnc3cnc(C4CC4)cn23)c1 [Compound 48, (R)-6-(6-cyclopropylimidazo[1,2-a]pyrazin-3-yl)-N-(piperidin-3-yl)pyridin-2-amine]
4 | 159 | 19 | 199 | 1 | < 0.5 | FC(F)COc1cn2c(-c3cccc(N[C@H]4CNCC[C@@H]4F)n3)cnc2cn1 [compound 76, 6-(6-(2,2-difluoroethoxy)imidazo[1,2-a]pyrazin-3-yl)-N-((3S,4S)-4-fluoropiperidin-3-yl)pyridin-2-amine]
5 | 296 | 86 | 244 | 38 | 0.6 | CC(C)(C)c1cn2c(-c3cc(F)cc(N[C@@H]4CCCNC4)n3)cnc2cn1 [Compound 123, (R)-6-(6-(tert-butyl)imidazo[1,2-a]pyrazin-3-yl)-4-fluoro-N-(piperidin-3-yl)pyridin-2-amine]
6 | 175 | 217 | 1540 | 24 | 0.9 | O=S1(=O)CCCCN1c1cn2c(-c3nc(N[C@@H]4CCCNC4)c(F)cc3F)cnc2cn1 [Compound 101, (R)-2-(3-(3,5-difluoro-6-(piperidin-3-ylamino)pyridin-2-yl)imidazo[1,2-a]pyrazin-6-yl)-1,2-thiazinane 1,1-dioxide]
7 | 67 | 7 | 34 | 0.7 | < 0.5 | CC1(c2cn3c(-c4cccc(N[C@@H]5CCCNC5)n4)cnc3cn2)CC1 [Compound 2, (R)-6-(6-(1-methylcyclopropyl)imidazo[1,2-a]pyrazin-3-yl)-N-(piperidin-3-yl)pyridin-2-amine]
8 | 504 | 15 | 158 | 4 | < 0.5 | FC(F)COc1cn2c(-c3cccc(N[C@@H]4CCCNC4)n3)cnc2cn1 [Compound 75, (R)-6-(6-(2,2-difluoroethoxy)imidazo[1,2-a]pyrazin-3-yl)-N-(piperidin-3-yl)pyridin-2-amine]
9 | 165 | 7 | 72 | 3 | < 0.5 | FC(F)(F)C1(c2cn3c(-c4cccc(N[C@H]5CNCC56CC6)n4)cnc3cn2)CC1 [Compound 12, (R)-N-(6-(6-(1-(trifluoromethyl)cyclopropyl)imidazo[1,2-a]pyrazin-3-yl)pyridin-2-yl)-5-azaspiro[2.4]heptan-7-amine]
10 | 9 | 11 | 86 | 1 | < 0.5 | O=S1(=O)CCCN1c1cn2c(-c3nc(N[C@@H]4CCCNC4)c(F)cc3F)cnc2cn1 [Compound 104, (R)-2-(3-(3,5-difluoro-6-(piperidin-3-ylamino)pyridin-2-yl)imidazo[1,2-a]pyrazin-6-yl)isothiazolidine 1,1-dioxide]
11 | 77 | 21 | 159 | 5 | < 0.5 | F[C@H]1CCNC[C@@H]1Nc1cccc(-c2cnc3cnc(C4(C(F)(F)F)CC4)cn23)n1 [Compound 13, N-((3S,4S)-4-fluoropiperidin-3-yl)-6-(6-(1-(trifluoromethyl)cyclopropyl)imidazo[1,2-a]pyrazin-3-yl)pyridin-2-amine]
12 | 288 | 10 | 88 | 5 | < 0.5 | FC(F)c1cn2c(-c3cccc(N[C@@H]4CCCNC4)n3)cnc2cn1 [Compound 17, (R)-6-(6-(difluoromethyl)imidazo[1,2-a]pyrazin-3-yl)-N-(piperidin-3-yl)pyridin-2-amine]
13 | 143 | 130 | 290 | 17 | < 0.5 | CC(C)(C)c1cn2c(-c3cc(F)cc(N[C@H]4CNCC[C@@H]4F)n3)cnc2cn1 [Compound 124, 6-(6-(tert-butyl)imidazo[1,2-a]pyrazin-3-yl)-4-fluoro-N-((3S,4S)-4-fluoropiperidin-3-yl)pyridin-2-amine]
14 | 265 | 193 | 1370 | 13 | 0.9 | O=S1(=O)CCCCN1c1cn2c(-c3nc(N[C@H]4CNCC[C@@H]4F)c(F)cc3F)cnc2cn1 [Compound 103, 2-(3-(3,5-difluoro-6-(((3S,4S)-4-fluoropiperidin-3-yl)amino)pyridin-2-yl)imidazo[1,2-a]pyrazin-6-yl)-1,2-thiazinane 1,1-dioxide]
15 | 43 | 21 | 193 | 1 | < 0.5 | O=S1(=O)CCCN1c1cn2c(-c3cccc(N[C@H]4CNC[C@@H]4F)n3)cnc2cn1 [Compound 95, 2-(3-(6-(((3S,4S)-4-fluoropyrrolidin-3-yl)amino)pyridin-2-yl)imidazo[1,2-a]pyrazin-6-yl)isothiazolidine 1,1-dioxide]
